Results on one molecule are retold here after patent US20250197513A1, “OSMR-SPECIFIC MONOCLONAL ANTIBODIES AND METHODS OF THEIR USE” (THE BOARD OF REGENTS OF THE UNIVERSITY OF TEXAS SYSTEM, priority 2021, published 2025).

The subject of one assay is A2780 cells. Kind of assay: Cell viability, cisplatin 48 h. In kind it is cell-based, human. The conditions noted are these: cisplatin alone.
The test system of a further assay is A2780-Cis cells. As to the kind of experiment: Cell viability, cisplatin 48 h. The conditions noted are these: cisplatin alone. In kind it is cell-based, human.
For another assay, the system named is A2780-CP tumors. Kind of assay: In vivo, intraperitoneal A2780-cisplatin resistant luciferase tumors. More on the design: species or system athymic nude mice. To be noted: cisplatin alone, 5 mg/kg biweekly.
In another assay the test system is OVCAR8 cells. As to the kind of experiment: Cell viability, cisplatin 48 h. In kind it is cell-based, human. The conditions noted are these: cisplatin alone.
Another assay deals with A2780 ovarian cancer. Kind of assay: In vivo, intraperitoneal A2780-sensitive luciferase tumors. Also noted: species or system athymic nude mice. To be noted: single agent, mice stimulated with OSM; cisplatin 5 mg/kg biweekly.
The subject of a further assay is SL-3-Cis cells. Kind of assay: Cell viability, cisplatin 48 h. To be noted: cisplatin alone. The assay is classed as cell-based, human.
In the next assay the test system is OVCAR8-Cis cells. Kind of assay: Cell viability, cisplatin 48 h. The assay is classed as cell-based, human. To be noted: cisplatin alone.
In the next assay the test system is SL3 cells. As to the kind of experiment: Cell viability, cisplatin 48 h. In kind it is cell-based, human. To be noted: cisplatin alone.

SMILES strings stand for the structures.

Description for A2780 cells: (§1) CCK8 cell viability assay: One thousand cells were seeded each well in 96-well plates. Following treatment for 48 h, the cells were washed with PBS and incubated for 4 h with CCK8 reagent at 37° C. in 5% CO2 incubator according to manufacturer's guidelines. The absorbance was measured at 460 nm.
Description for A2780-Cis cells: as §1
Description for OVCAR8 cells: as §1
Description for OVCAR8-Cis cells: as §1
Description for SL-3-Cis cells: as §1
Description for SL3 cells: as §1

As to `N.N.[Cl][Pt][Cl]` [cisplatin], the IC50 in the assay with A2780 cells came out at 2.04 µM; with A2780-Cis cells, 10.4 µM; in the assay on OVCAR8 cells it was 1.74 µM; with SL-3-Cis cells it was 7.37 µM; with OVCAR8-Cis cells, 13.6 µM; with SL3 cells it was 1.21 µM. In addition, the “growth and metastasis of A2780-CP tumors” value in the assay on A2780-CP tumors was “did not inhibit the growth and metastasis”. In addition, the “growth of A2780 ovarian cancer (bioluminescence)” value in the assay with A2780 ovarian cancer was “reduced the growth”.

In general, IC50 refers to the concentration at which inhibition is half-maximal.
